Where two headings read alike, the source gives them in different places.
Tests used:
[1] = molecular target: T1, human cannabinoid CB1 receptor (Homo sapiens, UniProt P21554); assay: biochemical; type: binding; parameters: expressed in transfected cells; host or cells: Chinese hamster ovary (CHO) cells, membrane preparation; conditions: [3H]CP-55,940 radioligand, CHO cell membranes stably transfected with human CB1
Experimental: After incubation of a freshly prepared cell membrane preparation with the [^3H]-ligand, with or without addition of compounds of the invention, separation of bound and free ligand was performed by filtration over glassfiber filters. Radioactivity on the filter was measured by liquid scintillation counting.

[2] = molecular target: T1, human cannabinoid CB1 receptor; assay: Cannabinoid CB1 antagonistic activity, forskolin-induced cAMP accumulation in CHO cells; type: cell-based; parameters: expressed in transfected cells; host or cells: CHO cells
Experimental: The cannabinoid CB1 antagonistic activity of compounds of the invention was determined by functional studies using CHO cells in which human cannabinoid CB1 receptors were stably expressed. Adenylyl cyclase was stimulated using forskolin and measured by quantifying the amount of accumulated cyclic AMP. Concomitant activation of CB1 receptors by CB1 receptor agonists (e.g. CP-55,940 or (R)-WIN-55,212–2) can attenuate the forskolin-induced accumulation of cAMP in a concentration-dependent manner. This CB1 receptor-mediated response can be antagonized by CB1 receptor antagonists such as the compounds of the invention.

[3] = antagonism of CB1 agonist (e.g. CP-55,940 or (R)-WIN-55,212-2) effect on forskolin-induced cAMP accumulation, CHO cells expressing human CB1, read-out: hCB1 pA2 (converted)
[4] = antagonism of CB1 agonist (e.g. CP-55,940 or (R)-WIN-55,212-2) effect on forskolin-induced cAMP accumulation, CHO cells expressing human CB1

T1 sequence (P21554 whole entry): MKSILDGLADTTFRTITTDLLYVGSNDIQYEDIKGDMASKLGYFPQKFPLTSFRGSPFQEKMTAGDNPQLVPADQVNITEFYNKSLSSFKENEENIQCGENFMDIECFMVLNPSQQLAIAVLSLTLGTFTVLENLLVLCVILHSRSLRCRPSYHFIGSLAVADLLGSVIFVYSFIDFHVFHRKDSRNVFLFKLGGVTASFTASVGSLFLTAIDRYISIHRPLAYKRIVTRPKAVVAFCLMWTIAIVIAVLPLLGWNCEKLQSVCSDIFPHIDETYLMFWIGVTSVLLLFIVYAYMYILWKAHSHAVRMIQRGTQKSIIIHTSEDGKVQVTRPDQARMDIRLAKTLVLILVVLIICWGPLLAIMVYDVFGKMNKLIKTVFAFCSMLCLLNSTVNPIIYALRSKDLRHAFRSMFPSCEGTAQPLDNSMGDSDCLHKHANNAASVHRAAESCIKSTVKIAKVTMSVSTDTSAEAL

SMILES | melting point | Ki ([1]; hCB1 pKi) | Kb [2, 3] | Ki ([1]; read-out: hCB1 pKi (converted)) | Kb [2] | hCB1 pA2 [2, 4]
Cc1c(C(=O)NN2CCCCC2)nc(-c2ccc(Cl)cc2Cl)n1-c1ccc(Br)cc1 [Example 17, 1-(4-Bromophenyl)-2-(2,4-dichlorophenyl)-5-methyl-N-(piperidin-1-yl)-1H-imidazole-4-carboxamide] | > 204 °C | 0.0501 µM | 0.00158 µM | – | – | –
CCc1c(C(=O)NN2CCCCC2)nc(-c2ccc(Cl)cc2Cl)n1-c1ccc(Br)cc1 [Example 19, 1-(4-Bromophenyl)-2-(2,4-dichlorophenyl)-5-ethyl-N-(piperidin-1-yl)-1H-imidazole-4-carboxamide] | > 140 °C | 0.0316 µM | 0.00126 µM | – | – | –
CCc1c(C(=O)NC2CCCCC2)nc(-c2ccc(Cl)cc2Cl)n1-c1ccc(Br)cc1 [Example 20, 1-(4-Bromophenyl)-N-cyclohexyl-2-(2,4-dichlorophenyl)-5-ethyl-1H-imidazole-4-carboxamide] | > 135 °C | 0.1 µM | < 0.001 µM | – | – | –
O=C(NN1CCCCCC1)c1cn(-c2ccc(Br)cc2)c(-c2ccc(Cl)cc2Cl)n1 [Example 25, N-(Azepan-1-yl)-1-(4-bromophenyl)-2-(2,4-dichlorophenyl)-1H-imidazole-4-carboxamide] | 201 to 204 °C | – | – | 0.126 µM | 0.01 µM | –
COc1cc(Cl)ccc1-c1nc(C(=O)NC2CCCCC2)cn1-c1ccc(Cl)cc1 [Example 29, 1-(4-Chlorophenyl)-N-cyclohexyl-2-(2-methoxy-4-chlorophenyl)-1H-imidazole-4-carboxamide] | 177 to 179 °C | – | – | 0.398 µM | 0.1 µM | –
COc1ccc(-n2cc(C(=O)NC3CCCCC3)nc2-c2ccc(Cl)cc2Cl)cc1 [Example 36, N-Cyclohexyl-2-(2,4-dichlorophenyl)-1-(4-methoxyphenyl)-1H-imidazole-4-carboxamide] | 175 to 176 °C | 0.158 µM | 0.00631 µM | – | – | –
O=C(NC1CCCCC1)c1cn(-c2ccc(Cl)cc2)c(-c2ccc(Cl)cc2C(F)(F)F)n1 [Example 38, 1-(4-Chlorophenyl)-N-cyclohexyl-2-(2-trifluoromethyl-4-chlorophenyl)-1H-imidazole-4-carboxamide] | 172 °C | – | – | 0.2 µM | 0.02 µM | –
O=C(NN1CCCCC1)c1cn(-c2ccc(Cl)cc2)c(-c2ccc(Cl)cc2C(F)(F)F)n1 [Example 39, 1-(4-Chlorophenyl)-N-(piperidin-1-yl)-2-(2-trifluoromethyl-4-chlorophenyl)-1H-imidazole-4-carboxamide] | 219 °C | – | – | 0.316 µM | 0.0501 µM | –
O=C(NN1CCCCC1)c1cn(-c2ccc(C(F)(F)F)cc2)c(-c2ccc(Cl)cc2Cl)n1 [Example 46, 2-(2,4-dichlorophenyl)-N-(piperidin-1-yl)-1-(4-(trifluoromethyl)phenyl)-1H-imidazole-4-carboxamide] | > 200 °C (dec.) | 0.0501 µM | 0.00631 µM | – | – | –
O=C(NC1CCCCC1)c1cn(-c2ccc(C(F)(F)F)cc2)c(-c2ccc(Cl)cc2Cl)n1 [Example 48, N-Cyclohexyl-2-(2,4-dichlorophenyl)-1-(4-(trifluoromethyl)phenyl)-1H-imidazole-4-carboxamide] | 199 to 200 °C | – | – | 0.316 µM | 0.000251 µM | –
Cc1c(C(=O)NN2CCCCC2)nc(-c2ccc(Cl)cc2Cl)n1-c1ccc(F)cc1 [Example 62, 2-(2,4-Dichlorophenyl)-1-(4-fluorophenyl)-5-methyl-N-(piperidin-1-yl)-1H-imidazole-4-carboxamide] | 223 to 224 °C | 0.0316 µM | – | – | – | 7.7
COc1ccc(-n2c(-c3ccc(Cl)cc3Cl)nc(C(=O)NN3CCCCC3)c2C)cc1 [Example 63, 2-(2,4-Dichlorophenyl)-5-methyl-1-(4-methoxyphenyl)-N-(piperidin-1-yl)-1H-imidazole-4-carboxamide] | > 90 °C (dec.) | 0.0794 µM | 0.001 µM | – | – | –
Cc1c(C(=O)NN2CC3CCCC3C2)nc(-c2ccc(Cl)cc2Cl)n1-c1ccc(Cl)cc1 (centres unmarked) [Example 81, 1-(4-Chlorophenyl)-2-(2,4-dichlorophenyl)-N-(hexahydrocyclopenta-[c]pyrrol-2(1H)-yl)-5-methyl-1H-imidazole-4-carboxamide] | 143 to 146 °C | 0.0316 µM | – | – | – | 9.8
Cc1c(C(=O)NC2CC3CCC2C3)nc(-c2ccc(Cl)cc2Cl)n1-c1ccc(Cl)cc1 (stereo not drawn) [Example 84, N-(Exo-bicyclo[2.2.1]hept-2-yl)-1-(4-chlorophenyl)-2-(2,4-dichlorophenyl)-5-methyl-1H-imidazole-4-carboxamide] | 194 to 195 °C | 0.0158 µM | 0.00126 µM | – | – | –
Cc1c(C(=O)N[C@H]2CC[C@H](O)CC2)nc(-c2ccc(Cl)cc2Cl)n1-c1ccc(Cl)cc1 [Example 86, 1-(4-Chlorophenyl)-2-(2,4-dichlorophenyl)-N-(trans-4-hydroxycyclohexyl)-5-methyl-1H-imidazole-4-carboxamide] | 160 °C (dec.) | 0.126 µM | 0.0158 µM | – | – | –
Cc1c(C(=O)NN2CCCCCC2)nc(-c2ccc(Cl)cc2Cl)n1-c1ccc(Cl)cc1 [Example 92, N-(Azepan-1-yl)-1-(4-chlorophenyl)-2-(2,4-dichlorophenyl)-5-methyl-1H-imidazole-4-carboxamide] | 147 to 149 °C | 0.0631 µM | 0.00158 µM | – | – | –
Cc1c(C(=O)NN2CCCC2)nc(-c2ccc(Cl)cc2Cl)n1-c1ccc(Cl)cc1 [Example 93, 1-(4-Chlorophenyl)-2-(2,4-dichlorophenyl)-5-methyl-N-(pyrrolidin-1-yl)-1H-imidazole-4-carboxamide] | 205 to 206 °C | 0.02 µM | – | – | – | 8.2
Cc1c(C(=O)NN2CCOCC2)nc(-c2ccc(Cl)cc2Cl)n1-c1ccc(Cl)cc1 [Example 94, 1-(4-Chlorophenyl)-2-(2,4-dichlorophenyl)-5-methyl-N-(morpholin-4-yl)-1H-imidazole-4-carboxamide] | 225 °C (dec.) | 0.1 µM | – | – | – | 7.5
Cc1c(C(=O)NCc2ccc(C(F)(F)F)cc2)nc(-c2ccc(Cl)cc2Cl)n1-c1ccc(Cl)cc1 [Example 106, 1-(4-Chlorophenyl)-2-(2,4-dichlorophenyl)-5-methyl-N-(4-(trifluoromethyl)benzyl)-1H-imidazole-4-carboxamide] | 232 °C | 0.1 µM | – | – | – | 8.9
Cc1c(C(=O)NC2CCCC2)nc(-c2ccc(Cl)cc2Cl)n1-c1ccc(Cl)cc1 [Example 107, 1-(4-Chlorophenyl)-N-cyclopentyl-2-(2,4-dichlorophenyl)-5-methyl-1H-imidazole-4-carboxamide] | 172 °C | 0.158 µM | – | – | – | 8.9
Cc1c(C(=O)NC2CCCCCC2)nc(-c2ccc(Cl)cc2Cl)n1-c1ccc(Cl)cc1 [Example 108, 1-(4-Chlorophenyl)-N-cycloheptyl-2-(2,4-dichlorophenyl)-5-methyl-1H-imidazole-4-carboxamide] | 154 to 156 °C | 0.00794 µM | – | – | – | 9.1
N#Cc1c(C(=O)NN2CCCCC2)nc(-c2ccc(Cl)cc2Cl)n1-c1ccc(Cl)cc1 [Example 110, 1-(4-chlorophenyl)-5-cyano-2-(2,4-dichlorophenyl)-N-(piperidin-1-yl)-1H-imidazole-4-carboxamide] | – | 0.0316 µM | – | – | – | 8.6
O=C(NN1CCCCC1)c1nc(-c2ccc(Cl)cc2Cl)n(-c2ccc(Cl)cc2)c1I [Example 111, 1-(4-Chlorophenyl)-2-(2,4-dichlorophenyl)-5-iodo-N-(piperidin-1-yl)-1H-imidazole-4-carboxamide] | 196 to 201 °C | 0.00631 µM | 0.00251 µM | – | – | –
O=C(NN1CCCCC1)c1nc(-c2ccc(Cl)cc2Cl)n(-c2ccc(Cl)cc2)c1Br [Example 117, 1-(4-chlorophenyl)-2-(2,4-dichlorophenyl)-5-bromo-N-(piperidin-1-yl)-1H-imidazole-4-carboxamide] | 181.5 to 183 °C | 0.01 µM | 0.00251 µM | – | – | –
CS(=O)(=O)c1c(C(=O)NN2CCCCC2)nc(-c2ccc(Cl)cc2Cl)n1-c1ccc(Cl)cc1 [Example 118, 1-(4-Chlorophenyl)-2-(2,4-dichlorophenyl)-5-methylsulfonyl-N-(piperidin-1-yl)-1H-imidazole-4-carboxamide] | 181 to 185 °C (dec.) | 0.0158 µM | – | – | – | 8.5
CSc1c(C(=O)NN2CCCCC2)nc(-c2ccc(Cl)cc2Cl)n1-c1ccc(Cl)cc1 [Example 120, 1-(4-Chlorophenyl)-2-(2,4-dichlorophenyl)-5-methylsulfanyl-N-(piperidin-1-yl)-1H-imidazole-4-carboxamide] | 170 °C (dec.) | 0.0126 µM | 0.000631 µM | – | – | –

— US7109216B2 (priority 2001, dated 2006)
